The target in this test is T1, human BACE1 (sproBACE1) (Homo sapiens, UniProt P56817).
T1 construct: sBACE1, corresponding to amino acids 1-454; made in house; host or cells: Sf9 insect cells (baculovirus), secreted into the medium
The test can be described thus: BACE-1 Peptide Hydrolysis Assay (HTRF). Type of test: biochemical. The text has this: A HindIII/PmeI fragment from pCDNA4-sBACE1myc/His was blunt ended using Klenow and subcloned into the Stu I site of PFASTBACI(A) (Invitrogen). A sBACE1mycHis recombinant bacmid was generated by transposition in DH10Bac cells (GIBCO/BRL). Subsequently, the sBACE1mycHis bacmid construct was transfected into sf9 cells using CellFectin (Invitrogen, San Diego, Calif.) in order to generate recombinant baculovirus. […] Five milliliters of high titer plaque purified sBACEmyc/His virus was used to infect 1 L of logarithmically growing sf9 cells for 72 hours. Intact cells were pelleted by centrifugation at 3000×g for 15 minutes. The supernatant, containing secreted sBACE1, was collected and diluted 50% v/v with 100 mM HEPES, pH 8.0. The diluted medium was loaded onto a Q-sepharose column. The Q-sepharose column was washed with Buffer A (20 mM HEPES, pH 8.0, 50 mM NaCl).
Proteins, were eluted from the Q-sepharose column with Buffer B (20 mM HEPES, pH 8.0, 500 mM NaCl). The protein peaks from the Q-sepharose column were pooled and loaded onto a Ni-NTA agarose column. The Ni-NTA column was then washed with Buffer C (20 mM HEPES, pH 8.0, 500 mM NaCl). Bound proteins were then eluted with Buffer D (Buffer C+250 mM imidazole).
Reactions were initiated by addition of substrate in a 5 μl aliquot resulting in a total volume of 25 μl. After 3 hr at 30° C. reactions were terminated by addition of an equal volume of 2× stop buffer containing 50 mM Tris-HCl pH 8.0, 0.5 M KF, 0.001% Brij-35, 20 μg/ml SA-XL665 (cross-linked allophycocyanin protein coupled to streptavidin; CIS-Bio International, France) (0.5 μg/well). Plates were shaken briefly and spun at 1200×g for 10 seconds to pellet all liquid to the bottom of the plate before the incubation.
Y=Bottom+(Top-Bottom)/(1+10^((LogEC50−X)*Hill Slope)); X is the logarithm of concentration of I, Y is the percent change in ratio and Y starts at bottom and goes to top with a sigmoid shape.

Like-named read-outs stand apart in the source and are kept apart here.

T1 sequence (P56817 22-454): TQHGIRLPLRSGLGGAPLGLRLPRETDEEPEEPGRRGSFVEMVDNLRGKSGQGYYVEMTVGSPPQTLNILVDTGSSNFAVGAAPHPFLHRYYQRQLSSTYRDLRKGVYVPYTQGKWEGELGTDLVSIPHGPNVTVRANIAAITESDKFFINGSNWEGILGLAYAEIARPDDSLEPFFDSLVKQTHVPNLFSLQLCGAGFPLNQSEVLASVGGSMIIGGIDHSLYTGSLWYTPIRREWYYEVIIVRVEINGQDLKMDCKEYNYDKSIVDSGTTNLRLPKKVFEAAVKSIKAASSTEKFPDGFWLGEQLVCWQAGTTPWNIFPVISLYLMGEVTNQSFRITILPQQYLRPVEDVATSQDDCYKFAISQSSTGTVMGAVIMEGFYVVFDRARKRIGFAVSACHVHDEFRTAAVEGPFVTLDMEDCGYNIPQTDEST

Consider `N=C1NC(c2ccccc2)(c2ccccc2)C(=O)N1CC1CCN(S(=O)(=O)c2ccc3ccccc3c2)CC1` [piperidine, 4-[(2-imino-5-oxo-4,4-diphenyl-1-imidazolidinyl)methyl]-1-(2-naphthalenylsulfonyl)-], for which, for the setting “read-out: BACE-1 Ki”, the Ki is under 5 µM. As for `CC1(c2cccc(-c3cccc(Cl)c3)c2)NC(=N)N(CC2CCN(C(=O)Nc3ccccc3)C2)C1=O` (stereo not drawn), the Ki (read-out: BACE-1 Ki) was under 5 µM. On the same count and under the same terms, for `CN1C(=N)N[C@@](c2cccc(-c3cc(Br)ccn3)c2)(C2CC2)C1=O` the value was under 5 µM; for `CN1C(=N)NC(C)(c2cccc(-c3cc(Cl)ccc3CNS(=O)(=O)c3ccccc3)c2)C1=O` (stereo not drawn) [benzenesulfonamide, N-[[5-chloro-3′-(2-imino-1,4-dimethyl-5-oxo-4-imidazolidinyl)[1,1′-biphenyl]-2-yl]methyl]-], under 5 µM. `CN1C(=N)NC(C)(c2cc(-c3cccc(C#N)c3)cs2)C(CC=Cc2ccccc2)C1=O` (stereo not drawn): where the note is “read-out: BACE-1 Ki”, the Ki was under 5 µM. The same measure, in the same setting: for `CN1C(=N)N[C@](CCC2CCCCC2)(C[C@H]2CCC[C@@H](NC(=O)C3CCCC3)C2)C1=O` the value was under 5 µM. As to `CN1C(=N)N[C@](C)(C[C@H]2CCC[C@@H](Nc3ccc4ccccc4n3)C2)C1=O`, the Ki (read-out: BACE-1 Ki) was under 5 µM. Same read-out and setting: for `CC(=O)N[C@@H]1CCC[C@H](C[C@@]2(CCc3ccccc3)NC(=N)N(C)C2=O)C1` the value was under 5 µM. Compound `CC(=O)N1CCC(CN2C(=N)NC(C)(c3cccc(-c4ccoc4)c3)C2=O)CC1` (stereo not drawn) yielded a Ki of under 5 µM. With `N=C1NC(c2ccccc2)(c2ccccc2)C(=O)N1C[C@H]1CCCN(S(=O)(=O)C2CC2)C1`, the Ki (read-out: BACE-1 Ki) was under 5 µM. Regarding `CN1C(=N)N[C@](C)(c2cc(-c3cc(C#N)cc(C#N)c3)cs2)CC1=O`, the Ki (read-out: BACE-1 Ki) was under 5 µM. As to `CN1C(=N)N[C@](C)(c2ncc(-c3cc(F)cc(C#N)c3)s2)CC1=O`, where the note is “read-out: BACE-1 Ki”, the Ki is under 5 µM.

In the case of `CN1C(=N)NC(c2ccccc2)(c2cccc(NC(=O)c3ccoc3)c2)C1=O` (racemic), the Ki (read-out: BACE-1 Ki) is under 5 µM. The same measure, in the same setting: the same measure for `CS(=O)(=O)N1CCC(CN2C(=N)NC(c3ccccc3)(c3ccccc3)C2=O)CC1` [piperidine, 4-[(2-imino-5-oxo-4,4-diphenyl-1-imidazolidinyl)methyl]-1-(methylsulfonyl)-]: under 5 µM. Take `CN1C(=N)NC(c2ccccc2)(c2cc(-c3cccnc3)cs2)C1=O` (stereo not drawn): the Ki (read-out: BACE-1 Ki) was under 5 µM.

For `CCS(=O)(=O)N1CCC(CN2C(=N)NC(c3ccccc3)(c3ccccc3)C2=O)CC1` [piperidine, 1-(ethylsulfonyl)-4-[(2-imino-5-oxo-4,4-diphenyl-1-imidazolidinyl)methyl]-], the Ki (read-out: BACE-1 Ki) was under 5 µM.

On to `CN1C(=N)NC(c2cccc(Br)c2)(C2CCC2)C1=O` (stereo not drawn) [5-(3-BROMOPHENYL)-5-CYCLOBUTYL-2-IMINO-3-METHYL-4-IMIDAZOLIDINONE], for which, under “read-out: BACE-1 Ki”, the Ki was under 5 µM.

In the case of `COc1cc(C#N)cc(-c2csc([C@]3(C)CC(=O)N(C)C(=N)N3)c2)c1`, under “read-out: BACE-1 Ki”, the Ki is under 5 µM.

As for `CN1C(=N)N[C@](C)(c2cc(-c3ccncc3)c3sccc3c2)CC1=O`, the Ki (read-out: BACE-1 Ki) was under 5 µM.

On to `CN1C(=N)NC(C)(c2ccc(F)c(-c3cccnc3)c2)C1=O` (racemic), for which, for the setting “read-out: BACE-1 Ki”, the Ki is under 5 µM. Same read-out and setting: for `CCOc1cc(F)cc(-c2csc([C@]3(C)CC(=O)N(C)C(=N)N3)c2)c1` the value was under 5 µM; for `CN1C(=N)NC(c2ccccc2)(c2cc(-c3cccc(C#N)c3)cs2)C1=O` (stereo not drawn) [3-[5-(2-IMINO-1-METHYL-5-OXO-4-PHENYL-4-IMIDAZOLIDINYL)-3-THIENYL]BENZONITRILE], under 5 µM; for `CN1C(=N)NC(c2cc(-c3cccc(CO)c3)cs2)(C2CC2)C1=O` (stereo not drawn), under 5 µM. `CC(=O)N1CCC(CN2C(=N)NC(C)(c3cccc(-c4cccc(O)c4)c3)C2=O)CC1` (stereo not drawn) had a Ki of under 5 µM. As for `CC(C)S(=O)(=O)Nc1ccc(CN2C(=N)NC(c3ccccc3)(c3ccccc3)C2=O)cc1` [2-propanesulfonamide, N-[4-[(2-imino-5-oxo-4,4-diphenyl-1-imidazolidinyl)methyl]phenyl]-], the Ki (read-out: BACE-1 Ki) was under 5 µM. Turning to `Cc1c(-c2cccc(C#N)c2)csc1[C@]1(C)CC(=O)N(C)C(=N)N1`, the Ki (read-out: BACE-1 Ki) is under 5 µM. In the case of `CCn1nccc1Nc1cccc(C2(c3ccccc3)NC(=N)N(C)C2=O)c1` (stereo not drawn), the Ki (read-out: BACE-1 Ki) was under 5 µM. With `CN1C(=N)N[C@](C)(c2ccc3c(c2)c(Br)cn3C)CC1=O`, the Ki (read-out: BACE-1 Ki) was under 5 µM. Still for that read-out and setting: for `CN1C(=N)NC(C)(c2cc(-c3ccc(F)c(C#N)c3)cs2)C(Br)C1=O` (stereo not drawn) the value was under 5 µM.

For the compound `CN1C(=N)N[C@](C)(c2cc(-c3cccc(Cl)c3)ccn2)CC1=O`, the Ki (read-out: BACE-1 Ki) is under 5 µM. Still for that read-out and setting: the same measure for `CN1C(=N)NC(c2cccc(Br)c2)(C2(C)CC2)C1=O` (stereo not drawn) [5-(3-BROMOPHENYL)-2-IMINO-3-METHYL-5-(1-METHYLCYCLOPROPYL)-4-IMIDAZOLIDINONE]: under 5 µM; for `CN1C(=N)N[C@](C)(c2cc(-c3cc(C#N)ccc3O)cs2)CC1=O`: under 5 µM; for `CCCC(=O)Nc1cccc(CN2C(=N)NC(c3ccccc3)(c3ccccc3)C2=O)c1` [BUTANAMIDE, N-[3-[(2-IMINO-5-OXO-4,4-DIPHENYL-1-IMIDAZOLIDINYL)METHYL]PHENYL]-]: under 5 µM. For the compound `COCCN1C(=N)N[C@](C)(c2ccc3sccc3c2)CC1=O`, under “read-out: BACE-1 Ki”, the Ki was under 5 µM. Turning to `CCc1cccc(-n2cc([C@]3(C)CC(=O)N(C)C(=N)N3)cn2)c1`, the Ki (read-out: BACE-1 Ki) is under 5 µM. Same read-out and setting: for `CN1C(=N)NC(c2ccccc2)(c2cccc(NS(C)(=O)=O)c2)C1=O` (racemic) the value was under 5 µM. For `CC(C)Oc1cccc(-c2csc([C@]3(C)CC(=O)N(C)C(=N)N3)c2)c1`, the Ki (read-out: BACE-1 Ki) is under 5 µM. On to `N=C1NC(c2cccc(-c3cccc(Cl)c3)c2)(C2CC2)C(=O)N1C1CCCC1` (stereo not drawn) [4-imidazolidinone, 5-(3′-chloro[1,1′-biphenyl]-3-yl)-3-cyclopentyl-5-cyclopropyl-2-imino-], for which the Ki (read-out: BACE-1 Ki) is under 5 µM. On the same count and under the same terms, the same measure for `CN1C(=N)N[C@@]2(CCCc3sc(-c4ccc(F)c(C#N)c4)cc32)CC1=O`: under 5 µM.

In the case of `CN1C(=N)N[C@](CCC2CCCCC2)(C[C@H]2CCC[C@H](N3CC[C@H](O)C3)C2)C1=O`, the Ki (read-out: BACE-1 Ki) was under 5 µM. The same measure, in the same setting: the same measure for `CN1C(=N)N[C@](C)(c2cc(Br)c(-c3cncc(C#N)c3)s2)CC1=O`: under 5 µM; for `N=C1NC(c2ccccc2)(c2ccccc2)C(=O)N1CC1CCN(C(=O)Nc2cccc(Cl)c2)CC1`: under 5 µM.

Take `CC(=O)N1CCC(CN2C(=N)NC(C)(c3cccc(-c4cccc5[nH]ccc45)c3)C2=O)CC1` (stereo not drawn): the Ki was under 5 µM. On to `CN1C(=N)N[C@](CCC2CCCCC2)(C[C@H]2CCC[C@@H](NCCc3ccccc3)C2)C1=O`, for which the Ki (read-out: BACE-1 Ki) was under 5 µM. Consider `CN1C(=N)NC(C)(c2cccc(-c3cc(Cl)ccc3CNC(=O)c3ccncc3)c2)C1=O` (stereo not drawn), for which, under “read-out: BACE-1 Ki”, the Ki is under 5 µM.

Take `N=C1NC(c2cccc(-c3cccc(Cl)c3)c2)(C2CC2)C(=O)N1CC(F)(F)F` (stereo not drawn) [4-imidazolidinone, 5-(3′-chloro[1,1′-biphenyl]-3-yl)-5-cyclopropyl-2-imino-3-(2,2,2-trifluoroethyl)-]: the Ki (read-out: BACE-1 Ki) is under 5 µM.

As for `CN1C(=N)N[C@](C)(c2cc(C#N)cs2)[C@@H](c2ccc(C3CC3)cc2)C1=O`, the Ki (read-out: BACE-1 Ki) was under 5 µM. For the compound `CC1(c2cccc(-c3cccc(Cl)c3)c2)NC(=N)N(CC2CCN(C(=O)c3ccccc3)C2)C1=O` (stereo not drawn), the Ki (read-out: BACE-1 Ki) is under 5 µM.

As to `N=C1NC(c2ccccc2)(c2ccccc2)C(=O)N1CC1CCN(C(=O)Cc2cccnc2)CC1`, the Ki (read-out: BACE-1 Ki) is under 5 µM.

Consider `CN1C(=N)N[C@](C)(c2cc(-c3cccc(C#N)c3)c(Br)s2)CC1=O`, for which, for the setting “read-out: BACE-1 Ki”, the inhibition constant Ki is under 5 µM. For the compound `N=C1NC(c2ccccc2)(c2ccccc2)C(=O)N1CC1CCN(S(=O)(=O)c2ccc(F)c(Cl)c2)CC1` [piperidine, 1-[(3-chloro-4-fluorophenyl)sulfonyl]-4-[(2-imino-5-oxo-4,4-diphenyl-1-imidazolidinyl)methyl]-], the Ki (read-out: BACE-1 Ki) is under 5 µM. On the same count and under the same terms, for `CN1C(=N)N[C@](CCc2ccccc2)(C[C@H]2CCC[C@@H](Nc3cccnc3)C2)C1=O` the value was under 5 µM. On to `N=C1NC(c2cccc(-c3cccc(Cl)c3)c2)(C2CC2)C(=O)N1C1CCOCC1` (stereo not drawn) [4-imidazolidinone, 5-(3′-chloro[1,1′-biphenyl]-3-yl)-5-cyclopropyl-2-imino-3-(tetrahydro-2H-pyran-4-yl)-], for which the Ki (read-out: BACE-1 Ki) was under 5 µM. `CN1C(=N)N[C@](C)(c2cc(-c3ccc(F)c(C#N)c3)cs2)[C@H](C2CCC2)C1=O`: the Ki (read-out: BACE-1 Ki) is under 5 µM.

Turning to `CCCS(=O)(=O)N1CCC[C@H](CN2C(=N)NC(c3ccccc3)(c3ccccc3)C2=O)C1`, the Ki (read-out: BACE-1 Ki) is under 5 µM. `CC(=O)N1CCC(CN2C(=N)NC(C)(c3cccc(-c4cnn(C)c4)c3)C2=O)CC1` (stereo not drawn) registered a Ki of under 5 µM. For `CCCCS(=O)(=O)Nc1cccc(CN2C(=N)NC(c3ccccc3)(c3ccccc3)C2=O)c1`, the Ki (read-out: BACE-1 Ki) is under 5 µM.

Values taken from patent US8183252B2, “Heterocyclic aspartyl protease inhibitors” (Schering Corporation, priority 2007, dated 2012).
